A word on the IC50: it is the concentration at which inhibition is half-maximal. As a reminder, the Cmax is the peak of the concentration-time curve. Usually clearance stands for the rate of elimination divided by the concentration. A lower clearance goes with inefficient removal. The term half-life denotes how long it takes for the measured level to halve. A higher half-life goes with slow loss.

The source of these data is patent publication US11098040B2, “Compounds and methods of use” (Ferro Therapeutics, Inc., priority 2018, dated 2021).

In data set [1] the test system is SJSA-1. The data set is described as follows: Cell proliferation (Alamar Blue) assay, SJSA-1 osteosarcoma, with/without ferrostatin. The data set is classed as cell-based, human. To be noted: Homo sapiens. Summed up:
(§1)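 Cells seeded at 5000/well, 16-24 h, then exposed 24 h at 37° C to compound, 10-0.0005 μM in 3-fold dilutions, 1% DMSO final. Alamar Blue fluorescence (ex 540/em 590 nm) read after 1.5 h; IC50 from variable-slope sigmoidal fit.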
(Resazurin is reduced to fluorescent resorufin, in cell work by metabolically active cells.)

A short description of data set [2]: PK profile, IV plasma concentration and PK parameters. It is filed as in vivo. The note with it: Balb/C nude, mouse, iv, 5 mg/kg, 30% Kolliphore EL with 1% poloxamar 407 in water; for AUC(0-t): read-out: AUC0-t; for AUC(0-inf): read-out: AUC0-∞. Here is the method:
The PK profiles of compounds 148, 149, 150, 156 and 169 are shown below. Compound 156 was formulated in 30% Kolliphor EL (Cremophor EL) in water and compounds 148, 149, 150 and 169 were formulated in 30% Kolliphore EL with 1% poloxamar 407 in water. All compounds were dosed at 5 mg/kg. Blood samples were collected at various time points and analyzed using the method described above.

The subject of data set [3] is A431. The experiment in a line: Cell proliferation (Alamar Blue) assay, A431. The data set is classed as cell-based. To be noted: Homo sapiens, A-431; Cell Line A431. The method, then: Cells (SJSA-1, 786-O and A431) were seeded (5000 cells/100 μL/well) in 96-well tissue culture plate and incubated at 37° C./5% CO2 for 16-24 hours. The cells were then treated with compounds (25 μL of 5×). The compound concentrations were 10-0.0005 μM prepared in 3-fold serial dilutions with final DMSO concentration of 1%. The plates were then incubated for 24 h at 37° C./5% CO2 in a moist environment. Then Alamar Blue™ reagent (final concentration 1×-12.5 μL) was added to each well and incubated for 1.5 hours at 37° C./5% CO2. The plates were read on fluorescence reader at 540 nm excitation and 590 nm emission wavelengths. The IC50 values were subsequently determined using a sigmoidal dose-response curve (variable slope) in GraphPad Prism® 5 software.
The cell proliferation assays for the compounds shown Table 25 was performed according to the protocols described herein, including Examples 4 and 6.

In data set [4] the test system is 786-O. The experiment in a line: Cell proliferation (Alamar Blue) assay, 786-O renal cell carcinoma, with/without ferrostatin. It is filed as cell-based. To be noted: Homo sapiens. Summed up: as §1
For data set [5], the system named is A549. The experiment in a line: Cell viability assay, A549 cells. It is filed as cell-based. The note with it: Homo sapiens, A549, Cell Line A549; read-out: IC50. The method in brief:
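Growth of A549 cells was assessed with a cell viability assay. Cells were plated at 1,000-10,000 cells/well in 96-well plates and incubated overnight at 37° C. Nine-point 3-fold DMSO dilutions, starting from 30 μM and run in duplicate, were diluted into media (final DMSO 0.25% or less). After 96 hours, CellTiter Glo luminescence was read, inhibition was calculated against DMSO controls, and IC50 was fitted in XL-fit.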

[6] abbreviates: SJSA-1, Cell Line SJSA-1, read-out: IC50.
[7] abbreviates: 786-0, Cell Line 786-O, read-out: IC50.
Setting [8] is: SJSA-1, 24 h, Alamar Blue, 24 h, 2 μM ferrostatin, read-out: SJSA-1 (IC50, μM) 2 μM Ferrostatin.
Setting [9] is: SJSA-1, 24 h, Alamar Blue, 24 h, without ferrostatin, read-out: SJSA-1 (IC50, μM) Without Ferrostatin.
[10] abbreviates: 786-0, 24 h, Alamar Blue, 24 h, 2 μM ferrostatin, read-out: 786-O (IC50, μM) 2 μM Ferrostatin.
[11] abbreviates: 786-0, 24 h, Alamar Blue, 24 h, without ferrostatin, read-out: 786-O (IC50, μM) Without Ferrostatin.

Structures are written as SMILES. Where two headings read alike, the source gives them in different places.

`C#CC(=O)N1[C@@H](CCCC)Cc2c([nH]c3ccccc23)[C@@H]1c1ccc(NC23CC4CC(CC(C4)C2)C3)cc1` [Compound 148, 1-((1 S,3S)-1-(4-(((3R,5R,7R)-adamantan-1-yl)amino)phenyl)-3-butyl-1,3,4,9-tetrahydro-2H-pyrido[3,4-b]indol-2-yl)prop-2-yn-1-one]: in data set [1] (setting [6]), the IC50 is 0.008 µM. In addition, in data set [2], the C0 was 40.6 µg/mL, the Cmax was found to be 33 µg/mL, the clearance came out at 0.287 L/h/kg and the AUC(0-t) amounted to 17.2 µg·h/mL. Further, the AUC(0-inf) in data set [2] was 17.4 µg·h/mL. The Vd in data set [2] (read-out: Vd) turned out to be 2.39 L/kg. For the same molecule, the Vd in data set [2] (read-out: Vss) amounted to 0.47 L/kg. In addition, in data set [2] (time points considered 4-24 h), the half-life is 5.76 h. In data set [3], this molecule gave an IC50 of 3.6 µM. Also, in data set [4] (setting [7]), the IC50 amounted to 0.006 µM.
In the case of `CCCC[C@H]1Cc2c([nH]c3ccccc23)[C@H](c2ccc(NC34CC5CC(CC(C5)C3)C4)cc2)N1C(=O)CCl` [Compound 149, 1-((1S,3S)-1-(4-(((3R,5R,7R)-adamantan-1-yl)amino)phenyl)-3-butyl-1,3,4,9-tetrahydro-2H-pyrido[3,4-b]indol-2-yl)-2-chloroethan-1-one], the IC50 in data set [1] (setting [6]) stood at 0.002 µM. Moreover, in data set [2], the C0 was determined as 29.4 µg/mL, the Cmax stood at 22 µg/mL, the clearance came out at 0.78 L/h/kg and the AUC(0-t) was 6.54 µg·h/mL. In addition, the AUC(0-inf) in data set [2] is 6.55 µg·h/mL. The Vd in data set [2] (read-out: Vd) turned out to be 2.34 L/kg. In addition, the Vd in data set [2] (read-out: Vss) came out at 0.53 L/kg. Besides, the half-life in data set [2] (time points considered 2-8 h) is 2.12 h. Further, inhibition in data set [3] was half-maximal at 3.8 µM (IC50). In addition, the IC50 in data set [4] (setting [7]) stood at 0.001 µM.
Consider `C[C@H]1Cc2c([nH]c3ccccc23)[C@H](c2ccc(C(=O)NC3CCC3)nc2)N1C(=O)CCl` [Compound 214, 5-((1S,3S)-2-(2-chloroacetyl)-3-methyl-2,3,4,9-tetrahydro-1H-pyrido[3,4-b]indol-1-yl)-N-cyclobutylpicolinamide], for which the IC50 in data set [1] (setting [8]) was 4.15 µM; in data set [1] (setting [9]) it was 0.03 µM; in data set [1] (setting [6]), 0.03 µM; in data set [3], 1.58 µM; in data set [4] (setting [10]), 4.72 µM; in data set [4] (setting [11]) it was 0.019 µM. Besides, the IC50 in data set [4] (setting [7]) is 0.019 µM.
As to `CC1CN(c2ccc([C@H]3c4[nH]c5ccccc5c4C[C@H](C)N3C(=O)CCl)cc2)CCO1` (some centres unmarked) [Compound 215], the IC50 in data set [1] (setting [8]) was 9.41 µM; in data set [1] (setting [9]), 0.028 µM; in data set [1] (setting [6]) it was 0.028 µM; in data set [3], 8.22 µM; in data set [4] (setting [10]) it was 9.88 µM; in data set [4] (setting [11]), 0.018 µM. Besides, the IC50 in data set [4] (setting [7]) stood at 0.018 µM.
Turning to `COC[C@H]1Cc2c([nH]c3ccccc23)[C@H](c2ccc(N3CCOCC3)cc2)N1C(=O)CCl` [Compound 232], the results for the IC50 in data set [1] (setting [6]), in data set [3] and in data set [4] (setting [7]) were 0.045 µM, above 10 µM and 0.025 µM, respectively.
On to `C[C@H]1Cc2c([nH]c3ccccc23)[C@H](c2ccc(N3CCOCC3)cc2F)N1C(=O)CCl` [Compound 233], for which the IC50 in data set [1] (setting [6]) was determined as 0.0443 µM; in data set [5] it was 1.97 µM; in data set [3] it was 4.8 µM; in data set [4] (setting [7]) it was 0.0337 µM.
For `Cc1cc(N2CCOCC2)ccc1[C@H]1c2[nH]c3ccccc3c2C[C@H](C)N1C(=O)CCl` [Compound 234, 2-chloro-1-((1S,3S)-3-methyl-1-(2-methyl-4-morpholinophenyl)-1,3,4,9-tetrahydro-2H-pyrido[3,4-b]indol-2-yl)ethan-1-one] the same measures were 3.92 µM, 3.25 µM, 8 µM and 4.17 µM.
